Compound: O=C(NCCCNc1nc(Nc2cccc(NC(=O)N3CCCC3)c2)ncc1I)c1cccs1 [BX 795] + O=C(c1cc(Cc2n[nH]c(=O)c3ccccc23)ccc1F)N1CCN(C(=O)C2CC2)CC1 [Olaparib] (partner 8 µM)
Assay: relative viability (nuclei count vs DMSO), 5 days (fraction); higher = more cells survive
How it was run: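 Relative viability equals treated-well nuclei counts divided by vehicle-well nuclei counts. Counts came from 4× images of lung cancer cell lines grown in 1536-well plates for 5 days after pin-tool dosing on the day after seeding. Dosing used one drug alone or a fixed anchor-drug dose plus five library-drug doses (not always all listed) in √10 steps, and values are medians of duplicate plates.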

| Cell Line | relative viability (first compound 0.04 µM) | relative viability (first compound 0.1265 µM) | relative viability (first compound 0.4 µM) | relative viability (first compound 1.265 µM) |
| --- | --- | --- | --- | --- |
| NCI-H650 | 0.451 | 0.367 | 0.412 | 0.259 |
| NCI-H441 | 0.665 | 0.623 | 0.497 | 0.413 |
| HCC-827 | 0.448 | 0.621 | 0.525 | 0.639 |
| NCI-H2023 | 0.461 | 0.494 | 0.403 | 0.26 |
| NCI-H1975 | 0.811 | 0.961 | 0.632 | 0.586 |
| SK-LU-1 | 0.484 | 0.519 | 0.31 | 0.413 |
| NCI-H2347 | 0.679 | 0.658 | 0.646 | 0.515 |
| SK-MES-1 | 0.746 | 0.646 | 0.688 | 0.383 |
| NCI-H661 | 0.742 | 0.826 | 0.662 | 0.583 |
| NCI-H2170 | 0.597 | 0.681 | 0.538 | 0.487 |
| LU99A | 0.211 | 0.264 | 0.17 | 0.222 |
| HCC-15 | 0.857 | 0.73 | 1.04 | 0.499 |
| H3255 | 0.624 | 0.608 | 0.501 | 0.492 |
| NCI-H2009 | 0.717 | 0.632 | 0.575 | 0.355 |
| NCI-H322M | 0.978 | 0.821 | 0.577 | 0.885 |
| NCI-H2405 | 1.03 | 0.839 | 0.558 | 0.878 |
| NCI-H1666 | 0.939 | 0.707 | 0.938 | 0.726 |
| NCI-H727 | 0.725 | 0.72 | 1.02 | 0.685 |
| RERF-LC-KJ | 0.919 | 0.963 | 0.945 | 0.409 |
| ABC-1 | 1.07 | – | 0.962 | 0.526 |
| PC-3 [JPC-3] | 1.16 | – | 1.04 | 1.09 |
| PC-14 | 0.241 | 0.298 | 0.139 | 0.236 |
| COR-L 105 | 0.705 | 0.491 | 0.644 | 0.562 |
| SW 1573 | 0.673 | 0.531 | 0.669 | 0.238 |

| Cell Line | relative viability (first compound 0.04 µM) | relative viability (first compound 0.1265 µM) | relative viability (first compound 0.4 µM) | relative viability (first compound 1.265 µM) |
| --- | --- | --- | --- | --- |
| NCI-H1793 | 0.972 | 0.856 | 0.928 | 0.804 |
| NCI-H1651 | 0.193 | 0.166 | 0.167 | 0.163 |
| UMC-11 | 0.381 | 0.32 | 0.861 | 0.27 |
| NCI-H358 | 0.724 | 0.709 | 0.486 | 0.368 |
| EMC-BAC-2 | 0.563 | 0.369 | 0.494 | 0.323 |
| CAL-12T | 0.877 | 0.769 | 0.725 | 0.41 |
| LCLC-103H | 0.794 | 0.73 | 0.761 | 0.763 |
| NCI-H520 | 0.334 | 0.357 | 0.307 | 0.22 |
| NCI-H1395 | 0.452 | 0.468 | 0.449 | 0.501 |
| HCC-366 | 0.336 | 0.404 | 0.175 | 0.252 |
| NCI-H1755 | 0.961 | 0.858 | 0.956 | 0.725 |
| NCI-H838 | 0.853 | 0.757 | 0.643 | 0.248 |
| NCI-H1355 | 0.827 | 0.663 | 0.806 | 0.571 |
| HCC-78 | 1.1 | 0.811 | 0.882 | 0.605 |
| NCI-H1650 | 0.903 | 0.713 | 0.711 | 0.814 |
| NCI-H1944 | 0.476 | 0.403 | 0.542 | 0.403 |
| BEN | 1.19 | 1.34 | 0.797 | 1.04 |
| A-427 | 0.826 | 0.68 | 0.672 | 0.641 |
| LXF-289 | 1.06 | 1.04 | 1.2 | 0.81 |
| COR-L23 | 0.328 | 0.311 | 0.247 | 0.166 |
| NCI-H647 | 0.406 | 0.565 | 0.288 | 0.232 |
| IA-LM | 0.783 | 0.797 | 0.768 | 0.757 |
| NCI-H2087 | 0.833 | 0.761 | 0.781 | 0.448 |
| NCI-H2228 | 0.788 | 0.74 | 0.559 | 0.311 |

| Cell Line | relative viability (first compound 0.04 µM) | relative viability (first compound 0.1265 µM) | relative viability (first compound 0.4 µM) | relative viability (first compound 1.265 µM) |
| --- | --- | --- | --- | --- |
| NCI-H1792 | 0.401 | – | 0.302 | 0.422 |
| NCI-H1915 | 0.297 | 0.26 | 0.217 | 0.242 |
| NCI-H1993 | 0.847 | 0.92 | 1.16 | 0.92 |
| HCC-44 | 0.995 | 1.01 | 1.06 | 1 |
| NCI-H23 | 0.335 | 0.308 | 0.247 | 0.225 |
| ChaGo-K-1 | 0.424 | 0.447 | 0.415 | 0.311 |
| EKVX | 0.833 | 0.783 | 0.666 | 0.807 |
| HOP-62 | 0.419 | 0.265 | 0.266 | 0.605 |
| A549 | 0.495 | 0.379 | 0.279 | 0.219 |
| NCI-H2126 | 0.982 | 0.909 | 1 | 0.893 |
| SW 900 | 0.755 | – | 1.25 | 0.775 |
| NCI-H1734 | 0.612 | 0.662 | 0.501 | 0.514 |
| HARA | 0.436 | 0.328 | 0.549 | 0.766 |
| 201T | 0.657 | 0.851 | 0.899 | 0.856 |
| NCI-H2085 | 0.827 | 0.833 | 0.914 | 0.72 |
| LK-2 | 0.769 | 0.883 | 0.739 | 0.641 |
| NCI-H1437 | 0.632 | 0.664 | 0.651 | 0.483 |
| NCI-H460 | 0.371 | 0.427 | 0.154 | 0.346 |
| NCI-H3122 | 0.573 | 0.609 | 0.539 | 0.669 |
| LCLC-97TM1 | 0.507 | 0.404 | 0.409 | 0.266 |
| EPLC-272H | 0.932 | 0.681 | 0.352 | 0.325 |
| NCI-H596 | 0.729 | 0.673 | 0.632 | 0.766 |
| LOU-NH91 | 0.9 | 0.918 | 0.754 | 0.902 |
| LC-2-ad | 0.756 | 0.456 | 0.685 | 0.608 |

Reference: the supplement of paper PMC10307832
